# Experimental data published in ChEMBL document CHEMBL1130449, “Potent novel nonsteroidal androgen antagonists with a phthalimide skeleton” (1997).
# What was measured:
# HL-60 [1] = test: Production of TNF-alpha by HL-60 cells in the presence of 50 nM okadaic acid with 300 nM test compound
# SC-3 = test: Growth inhibition of androgen-dependent clonal cell line SC-3, derived from Shionogi carcinoma 115; type: functional, Mus musculus; design: unit not given here
# HL-60 [2] = test: Production of TNF-alpha in HL-60 cells in the presence of 50 nM okadaic acid with 30 uM test compound
structure (smiles),measurement,setting,value
C[C@@H](c1ccccc1)N1C(=O)c2c(F)c(F)c(F)c(F)c2C1=O,Production,HL-60 [1],2%
same,No. of cells,SC-3,16
C[C@H](c1ccccc1)N1C(=O)c2c(F)c(F)c(F)c(F)c2C1=O,Production,HL-60 [1],70%
same,No. of cells,SC-3,3
O=C1c2c(F)c(F)c(F)c(F)c2C(=O)N1CC1Cc2ccccc2C1,Production,HL-60 [1],43%
same,No. of cells,SC-3,61
C[C@H](C1CCCCC1)N1C(=O)c2c(F)c(F)c(F)c(F)c2C1=O,Production,HL-60 [1],65%
same,No. of cells,SC-3,5
C[C@@H](c1cccc2ccccc12)N1C(=O)c2c(F)c(F)c(F)c(F)c2C1=O,Production,HL-60 [1],2%
same,No. of cells,SC-3,9
O=C1c2ccccc2C(=O)N1CC1Cc2ccccc2C1,Production,HL-60 [2],50%
same,No. of cells,SC-3,56
CC(=O)C(CN1C(=O)c2ccccc2C1=O)C(C)=O,Production,HL-60 [2],72%
same,No. of cells,SC-3,49
O=C1c2ccccc2C(=O)N1Cc1c(Cl)cccc1Cl,Production,HL-60 [2],39%
same,No. of cells,SC-3,69
C[C@H](c1cccc2ccccc12)N1C(=O)c2c(F)c(F)c(F)c(F)c2C1=O,Production,HL-60 [1],101%
same,No. of cells,SC-3,14
C[C@@H](C1CCCCC1)N1C(=O)c2c(F)c(F)c(F)c(F)c2C1=O,Production,HL-60 [1],10%
same,No. of cells,SC-3,2
O=C1c2c(F)c(F)c(F)c(F)c2C(=O)N1Cc1c(Cl)cccc1Cl,Production,HL-60 [1],76%
same,No. of cells,SC-3,45
O=C1c2ccccc2C(=O)N1CNc1ccccc1,Production,HL-60 [2],73%
same,No. of cells,SC-3,91
CC(C)C(=O)Nc1ccc([N+](=O)[O-])c(C(F)(F)F)c1 [FLUTAMIDE],Production,HL-60 [2],103%
same,No. of cells,SC-3,66
